Patent US5356915A, “Tetralones with pharmacological activity, compositions containing them” (J. Uriach & Cia. S.A., priority 1992, dated 1994)

What was measured:
[1] = tested on: noradrenaline induced contractions in isolated rat portal vein; test: Inhibition of noradrenaline induced contractions in isolated rat portal vein (Test 1); settings: 0.5 h, noradrenaline 3 μM, 30 min incubation, 37° C., pH 7.2, mean of at least two experiments
Protocol: Test 1: Inhibition of noradrenaline induced contractions in isolated rat portal vein.
Portal vein was extracted from adult male rats (b.w. 200-250 g), that had been stunned and exanguinated. Vein strips were suspended in an isolated organ bath (Letica) containing a physiological saline solution continuously bubbled with 5% CO2, 95% O2 gas at 37° C., pH 7.2. Contractions were induced by noradrenaline (3 μM) and were reverted after thorough washing with physiological saline solution. Portal vein contraction was measured with an isometric force transducer at an initial tension of 1 g. After two equal contractions with noradrenaline, performed in order to measure the tissue's basal response, the test compounds were incubated for 30 minutes and a new contraction was induced. The concentration that produces a 50% inhibition (IC50) versus the basal response was calculated. The experiment was repeated at least two times and the mean was calculated.

[2] = tested on: arterial pressure in conscious spontaneously hypertensive rats; test: Lowering of the arterial pressure in conscious spontaneously hypertensive rats (Test 2); format: in vivo, rat; settings: conscious spontaneously hypertensive male rats, caudal artery, at least 4 animals
Protocol: Test 2: Lowering of the arterial pressure in conscious spontaneously hypertensive rats.
Spontaneously hypertensive male rats (b.w. 200-250 g) were used. Diastolic and systolic arterial pressure were measured at the caudal artery using a sphygnomanometer (Letica 5007 and 5007/4) attached to the animal's tail. To ensure rapid and reliable data, animals were placed on a heating plate at 37° C., with the aim of producing a vasodilatation that ensured better fixation of the rat tail to the transducer chamber. During the experiment, rats were conscious and fixed by a clamp. The test products were administered orally. Arterial pressure was measured every 60 minutes over a period of 4 hours and 10 minutes before the administration of the test compound. […]

[3] = tested on: isolated guinea pig tracheal spirals; test: Direct relaxation of isolated guinea pig tracheal spirals (Test 3); settings: Cavia porcellus; 50% of maximum relaxation (isoproterenol 1×10^-6 M = maximum); isolated guinea pig tracheae; 37° C., pH 7.4; mean of at least two experiments
Protocol: Test 3 -Direct relaxation of isolated guinea pig tracheal spirals.
Tracheae were extracted from male guinea pigs of (b.w. 400 g) that had been stunned and exanguinated. Then, tracheae were cut in zigzag sections and placed in an isolated organ bath (Letica) containing Krebs-Henseleit solution at 37° C., pH 7.4, continuously bubbled with carbogen (95% O2 and 5% CO2). The relaxation of the tracheae was measured using an isometric force transducer. The basal tension was 0.5 g. The test compounds were cumulatively added to the bath and the effective concentration that produced 50% of the maximum relaxation (EC50) was calculated. The maximum relaxation was taken to be the relaxation induced by isoproterenol at 1×10^-6 M. The experiment was repeated at least two times and the mean was calculated.

Row | IC50 [1] | EC50 [3] | SMILES | Pressure Drop ± SEM ([2]; 0.1 mg/Kg p.o.) | Pressure Drop ± SEM ([2]; 1 mg/Kg p.o. (footnote *))
1 | 800 nM | 200 nM | CC1(C)C=C(c2cccc[n+]2[O-])c2cc(Br)ccc2C1=O [Compound 4, 6-Bromo-1,2-dihydro-2,2-dimethyl-4-(N-oxide-2-pyridyl)naphthalen-1-one] | 53 ± 8 mm Hg | –
2 | 600 nM | 100 nM | CC1(C)C=C(c2cccc[n+]2[O-])c2cc(C(F)(F)C(F)(F)F)ccc2C1=O [Compound 15, 1,2-Dihydro-2,2-dimethyl-4-(N-oxide-2-pyridyl)-6-pentafluoroethylnaphthalen-1-one] | 98 ± 20 mm Hg | –
3 | 500 nM | 200 nM | CC1(C)C=C(c2cccc[n+]2[O-])c2cc(Cl)c(Cl)cc2C1=O [Compound 18] | 74 ± 42 mm Hg | –
4 | 200 nM | 3000 nM | CC1(C)CC(c2cccc[n+]2[O-])c2cc(C#N)ccc2C1=O (racemic) [Compound 12, (±)-2,2-Dimethyl-4-(N-oxide-2-pyridyl)-1-oxo-1,2,3,4-tetrahydronaphthalen-6-carbonitrile] | – | 95 ± 9 mm Hg
5 | 900 nM | 200 nM | CC1(C)C=C(c2cccc[n+]2[O-])c2cc(C#N)ccc2C1=O [Compound 10, 1,2-Dihydro-2,2-dimethyl-4-(N-oxide-2-pyridyl)-1-oxonaphthalen-6-carbonitrile] | 53 ± 15 mm Hg | –
